Holding throughout (assay type): in vivo
Holding throughout (conditions): 250 g ai/ha, after three weeks

Test [1] relates to Alopecurus. As to the kind of experiment: Pre-emergence test (greenhouse). The protocol: (§1) Pre-Emergence Test Solvent: 5 parts by weight of acetone Emulsifier: 1 part by weight of alkylaryl polyglycol ether To produce a suitable preparation of active compound, 1 part by weight of active compound is mixed with the stated amount of solvent, the stated amount of emulsifier is added and the concentrate is diluted with water to the desired concentration. Seeds of the test plants are sewn in normal soil. After about 24 hours, the soil is sprayed with the preparation of active compound such that the particular amounts of active compound desired are applied per unit area. The concentration of the spray liquor is chosen such that the particular amounts of active compound desired are applied in 1000 l of water/ha. After three weeks, the degree of damage to the plants is rated in % damage in comparison to the development of the untreated control. The figures denote: • 0%=no effect (like untreated control) • 100%=total destruction

The test system of the next test is Amaranthus. Briefly: Pre-emergence test (greenhouse). The protocol:
as §1

The test system of test [2] is Avena fatua. As to the kind of experiment: Pre-emergence test (greenhouse). How it is done:
as §1

Test [3] deals with Echinochloa. Briefly: Pre-emergence test (greenhouse). How it is done:
as §1

In test [4] the test system is Setaria. Briefly: Pre-emergence test (greenhouse). How it is done: as §1
In test [5] the test system is Alopecurus. As to the kind of experiment: Post-emergence test (greenhouse). The protocol: (§2) Solvent: 5 parts by weight of acetone
(§3) Emulsifier: 1 part by weight of alkylaryl polyglycol ether
(§4) To produce a suitable preparation of active compound, 1 part by weight of active compound is mixed with the stated amount of solvent, the stated amount of emulsifier is added and the concentrate is diluted with water to the desired concentration.
(§5) Test plants of a height of 5-15 cm are sprayed with the preparation of active compound such that the particular amounts of active compound desired are applied per unit area. The concentration of the spray liquor is chosen such that the particular amounts of active compound desired are applied in 1000 l of water/ha.
(§6) After three weeks, the degree of damage to the plants is rated in % damage in comparison to the development of the untreated control.
(§7) The figures denote: • 0%=no effect (like untreated control) • 100%=total destruction

Test [6] deals with Avena fatua. As to the kind of experiment: Post-emergence test (greenhouse). The protocol: as §2, §3, §4, §5, §6, §7
Test [7] relates to Echinochloa. Briefly: Post-emergence test (greenhouse). How it is done:
as §2, §3, §4, §5, §6, §7

Test [8] concerns Setaria. As to the kind of experiment: Post-emergence test (greenhouse). How it is done: as §2, §3, §4, §5, §6, §7
A further test concerns Sinapis. As to the kind of experiment: Post-emergence test (greenhouse). The protocol:
as §2, §3, §4, §5, §6, §7

With `COC1CCC2(CC1)NC(=O)C(Cl)(c1c(C)cc(-c3cccc(Cl)c3)cc1C)C2=O` (stereo not shown) [Ex. I-1-4], the “degree of damage to the plants in % damage” value amounted to 95% in the test with Alopecurus [1]; 90% in the test on Amaranthus; 90% in the test on Avena fatua [2]; 100% in the test on Echinochloa [3]; 100% in the test with Setaria [4]; 100% in the test with Alopecurus [5]. The “degree of damage to the plants in % damage” value with Avena fatua [6] stood at 100%; in the test with Echinochloa [7], 100%; with Setaria [8], 100%; in the test on Sinapis, 70%.

The values above are taken from US7307044B2, “3-biphenyl-substituted-3-substituted-4-ketolactam and ketolactone and their utilization as pesticide” (Bayer CropScience AG, priority 2001, dated 2007).
